This note sets out measurements from ChEMBL document CHEMBL5226286, “The application of isatin-based multicomponent-reactions in the quest for new bioactive and druglike molecules” (Eur J Med Chem, 2021).

pIC50: −log10 of the molar value. ≈ marks a conversion by molar mass, not a printed value.

The test system of test [1] is Geotrichum candidum. The test is described as follows: Antifungal activity against Geotrichum candidum RCMB 05097. It counts as functional.
The subject of test [2] is Candida albicans. The test is described as follows: Antifungal activity against Candida albicans RCMB 05036 assessed as zone of inhibition. The test is classed as functional.
Test [3] has as its system Geotrichum candidum. As to the kind of experiment: Antifungal activity against Geotrichum candidum RCMB 05097 assessed as zone of inhibition. The test is classed as functional.
In a further test the test system is Nakaseomyces glabratus. The test is described as follows: Antifungal activity against Candida glabrata. The test is classed as functional.
The test system of test [4] is Candida albicans. The test is described as follows: Antifungal activity against Candida albicans RCMB 05036. The test is classed as functional.
Test [5] relates to Candida albicans. As to the kind of experiment: Antifungal activity against Candida albicans. It counts as functional.
For test [6], the system named is Syncephalastrum racemosum. As to the kind of experiment: Antifungal activity against Syncephalastrum racemosum RCMB 05922 assessed as zone of inhibition. The test is classed as functional.
Test [7] concerns Syncephalastrum racemosum. The test is described as follows: Antifungal activity against Syncephalastrum racemosum RCMB 05922. It counts as functional.
Test [8] has as its system Aspergillus fumigatus. As to the kind of experiment: Antifungal activity against Aspergillus fumigatus RCMB 02568. It counts as functional.
Test [9] deals with Candida albicans. The test is described as follows: Antifungal activity against Candida albicans MTCC 227. The test is classed as functional.
Test [10] deals with Aspergillus fumigatus. As to the kind of experiment: Antifungal activity against Aspergillus fumigatus RCMB 02568 assessed as zone of inhibition. The test is classed as functional.
The subject of another test is Candida tropicalis. As to the kind of experiment: Antifungal activity against Candida tropicalis. The test is classed as functional.
A further test has as its system Leishmania major. The test is described as follows: Antileishmanial activity against Leishmania major promastigotes incubated for 72 hrs by micrscopic analysis. The test is classed as functional.
The test system of another test is Saccharomyces cerevisiae. The test is described as follows: Antifungal activity against Saccharomyces cerevisiae MTCC 170. It counts as functional.
Test [11] concerns Staphylococcus aureus. As to the kind of experiment: Antibacterial activity against Staphylococcus aureus by agar well diffusion method. The test is classed as functional.
Test [12] deals with Escherichia coli. The test is described as follows: Antibacterial activity against Escherichia coli by agar well diffusion method. The test is classed as functional.
Test [13] has as its system Bacillus subtilis. As to the kind of experiment: Antibacterial activity against Bacillus subtilis by agar well diffusion method. The test is classed as functional.
The test system of test [14] is Staphylococcus aureus. The test is described as follows: microbe, parasite or virus in culture.
The test system of test [15] is Bacillus subtilis. The test is described as follows: Antibacterial activity against Bacillus subtilis. The test is classed as functional.
In test [16] the test system is Escherichia coli. The test is described as follows: microbe, parasite or virus in culture.
For a further test, the system named is PC-3. As to the kind of experiment: Antiproliferative activity against human PC-3 cells. The test is classed as functional, cell-based.
The subject of another test is LNCaP. As to the kind of experiment: Antiproliferative activity against human LNCaP cells. The test is classed as functional, cell-based.
The test system of another test is SMMC-7721. The test is described as follows: Antiproliferative activity against human SMMC-7721 cells. It counts as functional, cell-based.
Another test deals with MGC-803. As to the kind of experiment: Antiproliferative activity against human MGC-803 cells. The test is classed as functional, cell-based.
For another test, the system named is ECa-109 cell line. As to the kind of experiment: Antiproliferative activity against human EC109 cells. The test is classed as functional, cell-based.
The next test concerns A549. The test is described as follows: Anticancer activity against human A549 cells by MTT assay. It counts as functional, cell-based.
The next test has as its system K562. As to the kind of experiment: Anticancer activity against human K562 cells by MTT assay. It counts as functional, cell-based.
In the next test the test system is Proteus mirabilis. As to the kind of experiment: microbe, parasite or virus in culture. The following applies: PTCC 1776.
Test [17] concerns Staphylococcus epidermidis. The test is described as follows: microbe, parasite or virus in culture. The following applies: PTCC 1435.
Description: Antimicrobial activity against Staphylococcus epidermidis PTCC 1435 by broth disk diffusion microdilution method
A further test relates to HeLa. As to the kind of experiment: Growth inhibition of human HeLa cells at 20 micromol relative to control. The note with it: dose 20 µmol. It counts as functional.
In another test the test system is HepG2. The test is described as follows: Growth inhibition of human HepG2 cells at 20 micromol relative to control. The following applies: dose 20 µmol. The test is classed as functional.
Another test relates to MDA-MB-231. As to the kind of experiment: Growth inhibition of human MDA-MB-231 cells at 20 micromol relative to control. The test is classed as functional. The note with it: dose 20 µmol.

Description for Proteus mirabilis: Antimicrobial activity against Proteus mirabilis PTCC 1776 by broth disk diffusion microdilution method

Consider `C[C@@H]1[C@H](O)[C@@H](C)/C=C/C=C/C=C/C=C/C=C/C=C/C=C/[C@H](O[C@@H]2O[C@H](C)[C@@H](O)[C@H](N)[C@@H]2O)C[C@@H]2O[C@](O)(C[C@@H](O)C[C@@H](O)[C@H](O)CC[C@@H](O)C[C@@H](O)CC(=O)O[C@H]1C)C[C@H](O)[C@H]2C(=O)O` [AMPHOTERICIN B], for which the MIC with Geotrichum candidum [1] is 0.015 mg/L (≈ 0.0162 µM); in the test with Nakaseomyces glabratus it was 12.5 mg/L (≈ 13.5 µM); against Candida albicans [4], 0.06 mg/L (≈ 0.0649 µM); with Candida albicans [5], 12.5 mg/L (≈ 13.5 µM); in test [7], 1.95 mg/L (≈ 2.11 µM); in the test with Aspergillus fumigatus [8] it was 0.015 mg/L (≈ 0.0162 µM). Further, the MIC came to 100 mg/L (≈ 108 µM) against Candida albicans [9], 12.5 mg/L (≈ 13.5 µM) against Candida tropicalis, 0.49 µM (≈ 0.453 µg/mL) in the test with Leishmania major and 100 mg/L (≈ 108 µM) with Saccharomyces cerevisiae. In addition, the “diameter of the inhibition zone (DIZ)” value with Candida albicans [2] was 26 mm; in the test with Geotrichum candidum [3], 29 mm; in test [6] it was 22.1 mm; in the test on Aspergillus fumigatus [10], 23 mm.

With `COc1ccc(-n2cc(CN3C(=O)C4(C(C#N)=C(N)OC5=C4C(=O)CCC5)c4ccccc43)nn2)cc1` (stereo not drawn), the figures for the MIC with Candida albicans [9] and against Saccharomyces cerevisiae were 128 mg/L (≈ 259 µM) and 64 mg/L (≈ 129 µM), respectively.

As to `O=C1CCCC2=C1C1(C(=O)N2c2ccc(Cl)cc2)C2=C(Nc3ccc([N+](=O)[O-])cc31)c1ccccc1C2=O` (stereo not drawn), the MIC was 32 mg/L (≈ 61.1 µM) in the test with Staphylococcus aureus [11], 128 mg/L (≈ 244 µM) against Escherichia coli [12] and 32 mg/L (≈ 61.1 µM) with Bacillus subtilis [13].

On to `Cc1nn(-c2ccccc2)c2c1C1(C(=O)Nc3ccc([N+](=O)[O-])cc31)C1=C(CC(C)(C)CC1=O)O2` (stereo not drawn), for which the results for the MIC in the test with Staphylococcus aureus [14], against Bacillus subtilis [15] and with Escherichia coli [16] were 32 mg/L (≈ 68 µM), 64 mg/L (≈ 136 µM) and 128 mg/L (≈ 272 µM), respectively.

On to `CC(O)(CS(=O)(=O)c1ccc(F)cc1)C(=O)Nc1ccc(C#N)c(C(F)(F)F)c1` (stereo not drawn) [BICALUTAMIDE], for which the values for the pIC50 in the test with PC-3 and with LNCaP were 5.89 and 5.82, respectively.

In the case of `C[C@]12CC[C@H](O)CC1=CCC1C2CC[C@@]2(C)C1CC[C@@H]2C1=CC2(C(=O)N(Cc3ccc(Cl)c(Cl)c3)c3ccccc32)C(C#N)=C(N)N1` (stereo partly drawn), the pIC50 with SMMC-7721 was less than 3.89; in the test on MGC-803 it was less than 3.89; with ECa-109 cell line, 6.52.

For the molecule `CC(C)=CC(=O)[C@H]1[C@H](c2ccc(F)cc2)CN(C)[C@]12C(=O)N(C)c1ccccc12`, the negative-log IC50 (pIC50) in the test on A549 was 4.72; in the test on K562 it was 5.14.

As to `N=C(N)c1ccc(OCCCCCOc2ccc(C(=N)N)cc2)cc1` [PENTAMIDINE], in the test with Leishmania major, the MIC stood at 5.22 µM (≈ 1.78 µg/mL).

With `C[C@]12CC[C@H](O)CC1=CCC1C2CC[C@@]2(C)C1CC[C@@H]2C1=CC2(C(=O)Nc3ccc(Cl)cc32)C(C#N)=C(N)N1` (stereo partly drawn), the pIC50 in the test on SMMC-7721 was 5.02; with MGC-803, 5.38; in the test on ECa-109 cell line, 5.42.

For `CC1(C)S[C@@H]2[C@H](NC(=O)Cc3ccccc3)C(=O)N2[C@H]1C(=O)O` [PENICILLIN G], the MIC came to 16 mg/L (≈ 47.8 µM) against Proteus mirabilis and 1 mg/L (≈ 2.99 µM) in test [17].

On to `N#CC1=C(N)OC2=C(CSC/C2=C/c2ccc(C(F)(F)F)cc2)C12C(=O)Nc1ccccc12` (stereo not drawn), for which the “growth inhibition (GI)” value in the test on HeLa is 83.2%; in the test with HepG2, 73.1%; with MDA-MB-231, 61.3%.

In the case of `CC(C)=CC(=O)[C@H]1[C@H](c2ccc(Br)cc2)CN(C)[C@]12C(=O)Nc1ccc(C)cc12`, the pIC50 was 4.68 in the test on A549 and 5.24 in the test with K562.

Regarding `CC1(C)CC(=O)C2=C(C1)N(c1ccccc1)C(=O)C21C2=C(Nc3ccc([N+](=O)[O-])cc31)c1ccccc1C2=O` (stereo not drawn), the MIC was 16 mg/L (≈ 30.9 µM) with Staphylococcus aureus [11], 128 mg/L (≈ 247 µM) in the test with Escherichia coli [12] and 16 mg/L (≈ 30.9 µM) against Bacillus subtilis [13].

Consider `O=C(N[C@H](CO)[C@H](O)c1ccc([N+](=O)[O-])cc1)C(Cl)Cl` [CHLORAMPHENICOL], for which the MIC was determined as 8 mg/L (≈ 24.8 µM) against Staphylococcus aureus [14], 4 mg/L (≈ 12.4 µM) with Bacillus subtilis [15] and 4 mg/L (≈ 12.4 µM) against Escherichia coli [16].

Turning to `CC1(C)CC(=O)C(=C2SC(N)=C(C#N)C3(S2)C(=O)Nc2ccc(Cl)cc23)C(=O)C1` (stereo not drawn), the MIC was found to be 16 mg/L (≈ 35.9 µM) in the test on Proteus mirabilis and 2 mg/L (≈ 4.48 µM) in [17].
